Molecules are shown by their SMILES. Positions of bridges follow the written chain, without caps; N, C: chain ends. Non-standard residues stand in square brackets, D forms with d. Residues, ends and D or L forms follow the SMILES beside them. *: point of attachment. hPhe(3-Cl-4-CF3) = N[C@@H](CCc1ccc(C(F)(F)F)c(Cl)c1)C(=O)O; hPhe(4-CF3) = N[C@@H](CCc1ccc(C(F)(F)F)cc1)C(=O)O; NMeAbu(4,4,4-F3) = CN[C@@H](CC(F)(F)F)C(=O)O; NMePhe(4-Cl) = CN[C@@H](Cc1ccc(Cl)cc1)C(=O)O; NMePhe(4-Me) = CN[C@@H](Cc1ccc(C)cc1)C(=O)O; hPhe(4-Cl) = N[C@@H](CCc1ccc(Cl)cc1)C(=O)O; hPhe(4-F) = N[C@@H](CCc1ccc(F)cc1)C(=O)O; NMeGly(cPent) = CN[C@H](C(=O)O)C1CCCC1; Phe(3-I) = N[C@@H](Cc1cccc(I)c1)C(=O)O; Pro(4,4-F2) = O=C(O)[C@@H]1CC(F)(F)CN1; NMeCha = CN[C@@H](CC1CCCCC1)C(=O)O; NMeChg = CN[C@H](C(=O)O)C1CCCCC1; NMeF = CN[C@@H](Cc1ccccc1)C(=O)O; NMeI = CC[C@H](C)[C@H](NC)C(=O)O; Gly(cPr) = N[C@H](C(=O)O)C1CC1; NMeD = CN[C@@H](CC(=O)O)C(=O)O; NMeL = CN[C@@H](CC(C)C)C(=O)O; NMeV = CN[C@H](C(=O)O)C(C)C; d(β3hA) = C[C@@H](N)CC(=O)O; NMeS = CN[C@@H](CO)C(=O)O; NMeA = CN[C@@H](C)C(=O)O; NMeAib = CNC(C)(C)C(=O)O; Nle = CCCC[C@H](N)C(=O)O; Pyrrolidide = C1CCN(*)C1; Ac5c = NC1(C(=O)O)CCCC1; Aze = O=C(O)[C@@H]1CCN1; CH2CMe2OH = CC(C)(O)C*; Aib = CC(C)(N)C(=O)O; Isopentyl = CC(C)CC*; Sar = CNCC(=O)O

In the test the target is T1, Kras and SOS1 (biotin-tagged human Kras loaded with GDP, His-tagged human SOS1) (Homo sapiens, UniProt P01116, G12D).
T1 construct: made in house; host or cells: E. coli (stated for Kras only)
T1 sequence (P01116 1-188 isoform P01116-2 G12D): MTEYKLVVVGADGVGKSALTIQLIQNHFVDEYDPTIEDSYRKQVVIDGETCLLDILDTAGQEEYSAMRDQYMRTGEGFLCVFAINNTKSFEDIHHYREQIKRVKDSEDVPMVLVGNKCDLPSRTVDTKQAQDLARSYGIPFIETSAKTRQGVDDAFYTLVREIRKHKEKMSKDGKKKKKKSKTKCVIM
Description: Protein-protein interaction inhibition between Kras and SOS1 (KrasGl2D-SOS PPI) using AlphaScreen. Format: binding. The note with it: AlphaScreen; biotin-tagged human Kras loaded with GDP, His-tagged human SOS1; read-out: KRAS G12D-SOS PPI IC50. In a few lines:
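Binding between SOS1 and Kras is detected as bead-proximity luminescence: illuminate Ni-conjugated donors (680 nm), collect 520-620 nm emission from streptavidin-conjugated acceptors; Kras carries biotin and GDP loaded after purification, SOS1 carries a His tag.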
(In general: In Alpha technology, singlet oxygen from a donor bead excites a nearby acceptor bead.)
As a reminder, the IC50 is the concentration that gives 50% inhibition. `CC[C@H](C)[C@@H]1NC(=O)[C@H](C)N(C)C(=O)C[C@@H](C)NC(=O)[C@H](C2CCCC2)N(C)C(=O)C2(CCCC2)NC(=O)[C@@H]2CCCN2C(=O)[C@H](CCc2ccc(C(F)(F)F)c(Cl)c2)NC(=O)[C@H]2CCCN2C(=O)[C@H](CC2CCCCC2)N(C)C(=O)[C@@H]2CCN2C(=O)CN(C)C1=O` [Compound 1479] (cyclo([Ac5c][NMeGly(cPent)][d(β3hA)][NMeA]I[Sar][Aze][NMeCha][dP][hPhe(3-Cl-4-CF3)]P)): the IC50 was 120 nM. As to `CC[C@H](C)[C@@H]1NC(=O)[C@H](C)N(C)C(=O)C[C@@H](C)NC(=O)[C@H](C2CCCC2)N(C)C(=O)C2(CCCC2)NC(=O)[C@@H]2CCCN2C(=O)[C@H](CCc2ccc(C(F)(F)F)c(Cl)c2)NC(=O)[C@H]2CCCN2C(=O)[C@H](Cc2ccc(C)cc2)N(C)C(=O)[C@@H]2CCN2C(=O)CN(C)C1=O` [Compound 1494] (cyclo([Ac5c][NMeGly(cPent)][d(β3hA)][NMeA]I[Sar][Aze][NMePhe(4-Me)][dP][hPhe(3-Cl-4-CF3)]P)), the IC50 amounted to 140 nM. Consider `CC[C@H](C)[C@@H]1NC(=O)[C@H](C)N(C)C(=O)C[C@@H](C)NC(=O)[C@H](CC(C)C)N(C)C(=O)[C@H](Cc2ccccc2)N(C)C(=O)[C@@H]2CCCN2C(=O)[C@H](CCc2ccc(C(F)(F)F)cc2)NC(=O)CN(C)C(=O)[C@H]([C@@H](C)CC)N(C)C(=O)CN(C)C(=O)CN(C)C1=O` [Compound 18] (cyclo(I[Sar][Sar][NMeI][Sar][hPhe(4-CF3)]P[NMeF][NMeL][d(β3hA)][NMeA])), for which the IC50 amounted to 230 nM. As for `CC[C@H](C)[C@@H]1NC(=O)[C@H](CC(C)C)N(C)C(=O)C[C@@H](C)NC(=O)[C@H](C(C)C)N(C)C(=O)C2(CCCC2)NC(=O)[C@@H]2CCCN2C(=O)[C@H](CCc2ccc(Cl)cc2)NC(=O)CN(C)C(=O)[C@H](CC2CCCCC2)N(C)C(=O)CN(C)C(=O)CN(C)C1=O` [Compound 576] (cyclo([Ac5c][NMeV][d(β3hA)][NMeL]I[Sar][Sar][NMeCha][Sar][hPhe(4-Cl)]P)), the IC50 turned out to be 230 nM. The figure for `CCCC[C@@H]1NC(=O)[C@H](Cc2cccc(I)c2)NC(=O)CN(C)C(=O)[C@H](Cc2ccc(Cl)cc2)N(C)C(=O)CN(C)C(=O)CN(C)C(=O)[C@H]([C@@H](C)CC)NC(=O)[C@H](CC(C)C)N(C)C(=O)C[C@@H](C(=O)N2CCCC2)N(C)C(=O)[C@H](Cc2ccccc2)NC(=O)C(C)(C)N(C)C1=O` [Compound 1409] ([NMeL]I[Sar][Sar][NMePhe(4-Cl)][Sar][Phe(3-I)][Nle][NMeAib]F[NMeD]-Pyrrolidide; lactam N-11) is 170 nM; for `CC[C@H](C)[C@@H]1NC(=O)[C@H](CC(F)(F)F)N(C)C(=O)C[C@@H](C(=O)N2CCCC2)N(C)C(=O)[C@H](C2CCCCC2)N(C)C(=O)C2(CCCC2)NC(=O)[C@@H]2CC(F)(F)CN2C(=O)[C@H](CCc2ccc(C(F)(F)F)c(Cl)c2)NC(=O)CN(C)C(=O)[C@H](CC2CCCCC2)N(C)C(=O)CN(C)C(=O)CN(C)C1=O` [Compound 1357] ([NMeAbu(4,4,4-F3)]I[Sar][Sar][NMeCha][Sar][hPhe(3-Cl-4-CF3)][Pro(4,4-F2)][Ac5c][NMeChg][NMeD]-Pyrrolidide; lactam N-11) it is 0.52 nM; for `CC(C)C[C@H]1C(=O)N[C@@H](C2CC2)C(=O)N(C)CC(=O)N(C)CC(=O)N(C)[C@@H](CC2CCCCC2)C(=O)N(C)CC(=O)N[C@@H](CCc2ccc(C(F)(F)F)c(Cl)c2)C(=O)N2CCC[C@H]2C(=O)NC2(CCCC2)C(=O)N(C)[C@@H](C(C)C)C(=O)N[C@H](C)CC(=O)N1C` [Compound 101] (cyclo([Ac5c][NMeV][d(β3hA)][NMeL][Gly(cPr)][Sar][Sar][NMeCha][Sar][hPhe(3-Cl-4-CF3)]P)) it is 160 nM. Consider `CC[C@H](C)[C@@H]1NC(=O)[C@H](C)N(C)C(=O)C[C@@H](C)NC(=O)[C@H](CC(C)C)N(C)C(=O)C(C)(C)NC(=O)[C@H](CC(C)C)N(C)C(=O)[C@H](CCc2ccc(F)cc2)NC(=O)CN(C)C(=O)[C@H](Cc2ccc(Cl)cc2)N(C)C(=O)CN(C)C(=O)CN(C)C1=O` [Compound 28] (cyclo([Aib][NMeL][d(β3hA)][NMeA]I[Sar][Sar][NMePhe(4-Cl)][Sar][hPhe(4-F)][NMeL])), for which the IC50 came out at 160 nM. The figure for `CC[C@H](C)[C@@H]1NC(=O)[C@H](CC(C)C)N(C)C(=O)C[C@@H](C)NC(=O)[C@H](CC(C)C)N(C)C(=O)C(C)(C)NC(=O)[C@H](COCC(C)(C)O)N(C)C(=O)[C@H](CCc2ccc(C(F)(F)F)c(Cl)c2)NC(=O)CN(C)C(=O)[C@H](COCCC(C)C)N(C)C(=O)CN(C)C(=O)CN(C)C1=O` [Compound 1546] (cyclo([Aib][NMeL][d(β3hA)][NMeL]I[Sar][Sar][NMeS](Isopentyl)[Sar][hPhe(3-Cl-4-CF3)][NMeS](CH2CMe2OH))) is 40 nM.

(Values after US12371454B2, “Cyclic peptide compound having Kras inhibitory action” (priority 2019, dated 2025).)
